Holding throughout (format): functional
For experiment [1], the system named is Pectinophora gossypiella. Briefly: Antifeedant activity against second-instar larvae of Pectinophora gossypiella (pink bollworm) in cotton glandless leaves assessed as 50% protection of host plant substrate after 48 hr.
Experiment [2] has as its system Spodoptera frugiperda. The experiment can be described thus: Antifeedant activity against second-instar larvae of Spodoptera frugiperda (fall armyworm) in cotton glandless leaves assessed as 50% protection of host plant substrate after 48 hr.
The test system of experiment [3] is Pectinophora gossypiella. Briefly: Antifeedant activity against second-instar larvae of Pectinophora gossypiella (pink bollworm) in cotton glandless leaves assessed as 95% protection of host plant substrate after 48 hr.
Experiment [4] has as its system Spodoptera frugiperda. The experiment can be described thus: Antifeedant activity against second-instar larvae of Spodoptera frugiperda (fall armyworm) in cotton glandless leaves assessed as 95% protection of host plant substrate after 48 hr.

Take `CC(=O)O[C@@H]1[C@@H]2[C@@]34CC(=O)C[C@@H]3OC(C)(C)[C@@H]4CC(=O)[C@@]2(C)[C@@]23O[C@@H]2C[C@H](c2ccoc2)[C@]3(C)[C@H]1OC(C)=O` [ZUMSIN]: the PC50 in experiment [1] came to 1 microg/cm2; in experiment [2], 2 microg/cm2. The PC95 in experiment [3] was determined as 8 microg/cm2; in experiment [4], 16 microg/cm2.

(Values after ChEMBL document CHEMBL3045030, “Insect antifeedants from tropical plants II: structure of zumsin” (2002).)
